# Test results: PMC4522657, “Identification of a DYRK1A Inhibitor that Induces Degradation of the Target Kinase using Co-chaperone CDC37 fused with Luciferase nanoKAZ” (Scientific Reports, 2015)
# Assays:
# Assay type in all cases: biochemical
# NDR2 = target: T1, NDR2 (Homo sapiens, UniProt Q9Y2H1); experiment: Kinase panel, CaNDY 1 µM; conditions: CaNDY 1 µM relative to DMSO
# T1 construct: purchased Carna Biosciences
# PAK6 = target: T2, PAK6 (Homo sapiens, UniProt Q9NQU5); experiment: Kinase panel, CaNDY 1 µM; conditions: CaNDY 1 µM relative to DMSO
# T2 construct: purchased Carna Biosciences
# PYK2 = target: T3, PYK2 (Homo sapiens, UniProt Q14289); experiment: Kinase panel, CaNDY 1 µM; conditions: CaNDY 1 µM relative to DMSO
# T3 construct: purchased Carna Biosciences
# FLT1 = target: T4, FLT1 (Homo sapiens, UniProt P17948); experiment: Kinase panel, CaNDY 1 µM; conditions: CaNDY 1 µM relative to DMSO
# T4 construct: purchased Carna Biosciences
# T4 sequence (P17948 27-1338): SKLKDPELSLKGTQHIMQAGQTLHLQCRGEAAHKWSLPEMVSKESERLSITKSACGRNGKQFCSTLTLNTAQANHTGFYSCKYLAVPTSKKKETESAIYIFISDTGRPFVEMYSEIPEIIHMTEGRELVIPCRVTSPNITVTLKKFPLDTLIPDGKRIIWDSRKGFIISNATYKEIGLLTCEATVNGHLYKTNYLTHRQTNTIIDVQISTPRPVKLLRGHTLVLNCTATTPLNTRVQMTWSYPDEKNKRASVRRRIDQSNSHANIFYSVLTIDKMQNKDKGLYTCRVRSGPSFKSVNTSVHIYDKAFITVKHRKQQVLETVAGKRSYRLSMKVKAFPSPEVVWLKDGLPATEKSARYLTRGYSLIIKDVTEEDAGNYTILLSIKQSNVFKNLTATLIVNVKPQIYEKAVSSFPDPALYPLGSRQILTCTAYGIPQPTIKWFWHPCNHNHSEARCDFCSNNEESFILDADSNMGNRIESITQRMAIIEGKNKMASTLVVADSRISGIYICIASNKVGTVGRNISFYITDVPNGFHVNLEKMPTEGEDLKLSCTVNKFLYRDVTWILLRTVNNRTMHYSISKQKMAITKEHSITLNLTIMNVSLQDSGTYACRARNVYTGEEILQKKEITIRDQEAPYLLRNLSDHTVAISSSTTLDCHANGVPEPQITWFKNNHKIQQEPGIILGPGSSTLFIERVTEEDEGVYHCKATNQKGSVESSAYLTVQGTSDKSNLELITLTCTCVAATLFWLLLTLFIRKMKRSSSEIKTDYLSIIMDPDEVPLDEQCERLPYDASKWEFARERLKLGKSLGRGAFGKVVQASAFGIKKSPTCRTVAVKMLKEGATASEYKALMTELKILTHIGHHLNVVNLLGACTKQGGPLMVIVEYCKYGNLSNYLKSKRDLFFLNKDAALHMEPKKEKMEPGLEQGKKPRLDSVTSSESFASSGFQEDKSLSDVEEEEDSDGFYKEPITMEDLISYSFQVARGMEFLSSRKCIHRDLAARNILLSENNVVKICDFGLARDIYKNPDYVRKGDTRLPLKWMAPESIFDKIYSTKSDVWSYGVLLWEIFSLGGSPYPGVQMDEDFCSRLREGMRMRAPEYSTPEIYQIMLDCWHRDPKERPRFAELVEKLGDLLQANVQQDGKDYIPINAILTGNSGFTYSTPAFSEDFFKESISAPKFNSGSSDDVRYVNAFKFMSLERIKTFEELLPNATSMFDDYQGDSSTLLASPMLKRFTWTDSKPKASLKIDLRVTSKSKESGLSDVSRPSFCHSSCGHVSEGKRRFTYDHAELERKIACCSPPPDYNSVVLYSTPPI
# TNK1 = target: T5, TNK1 (Homo sapiens, UniProt Q13470); experiment: Kinase panel, CaNDY 1 µM; conditions: CaNDY 1 µM relative to DMSO
# T5 construct: purchased Carna Biosciences
# DYRK1B = DYRK1B (Homo sapiens, UniProt Q9Y463); experiment: Kinase panel, CaNDY 1 µM; design: purchased Carna Biosciences
# Sequence of DYRK1B (Q9Y463 whole entry, the tested form may be a part): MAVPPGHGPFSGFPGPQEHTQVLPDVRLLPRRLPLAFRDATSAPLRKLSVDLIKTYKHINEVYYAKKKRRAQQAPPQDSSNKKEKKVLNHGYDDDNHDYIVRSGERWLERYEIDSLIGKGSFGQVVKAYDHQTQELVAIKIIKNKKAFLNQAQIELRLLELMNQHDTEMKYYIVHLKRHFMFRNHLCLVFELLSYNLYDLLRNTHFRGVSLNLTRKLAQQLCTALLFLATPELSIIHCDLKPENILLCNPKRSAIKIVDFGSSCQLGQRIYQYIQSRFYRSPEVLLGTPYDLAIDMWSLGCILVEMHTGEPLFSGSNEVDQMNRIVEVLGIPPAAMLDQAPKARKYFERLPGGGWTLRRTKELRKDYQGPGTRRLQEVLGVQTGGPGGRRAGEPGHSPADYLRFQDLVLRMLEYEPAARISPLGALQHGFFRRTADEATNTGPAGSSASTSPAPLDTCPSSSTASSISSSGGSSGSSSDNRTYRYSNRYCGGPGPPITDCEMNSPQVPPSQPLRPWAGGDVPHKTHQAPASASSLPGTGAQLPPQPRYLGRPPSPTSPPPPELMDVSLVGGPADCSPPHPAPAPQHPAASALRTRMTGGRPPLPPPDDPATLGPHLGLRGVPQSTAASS
# From the text: (§1) Detailed information on the assay conditions is available on the website of Carna Biosciences (http://www.carnabio.com/english/index.html; Kobe, Japan). In brief, full-length human recombinant kinases were expressed using a baculovirus expression system as amino-terminal GST-fusion proteins, and purified by glutathione-Sepharose chromatography. The GenBank accession numbers of DYRK1A, DYRK1B, DYRK2, and DYRK3 were NP_001387.2, NP_004705.1, NP_003574.1, and NP_003573.2. Kinase activities were evaluated by Off-chip Mobility Shift Assay after reaction of 1 μM of the substrate DYRKtide-F with ATP (25 μM for DYRK1A, 50 μM for DYRK1B, 10 μM for DYRK2, and 5 μM for DYRK3). For each compound, a DMSO solution was diluted in assay buffer to yield a final concentration of 1% DMSO. After incubation for one hour at room temperature, substrate phosphorylation was analyzed by electrophoretic separation of the substrate and products using a Caliper LC3000 platform (Caliper Life Sciences, Mountain View, CA, USA). The phosphorylated product (P)/(P + substrate) ratio was calculated at each concentration of each small molecule and the percent inhibition was expressed relative to a control assay in the absence of the small molecule. […] The IC50 of each compound was calculated by interpolation on a log-concentration-response curve fitted with a four-parameter logistic equation.
# (§2) All kinase assays were carried out at Carna Biosciences. The inhibitory map was made with Kinome Render[36].
# Haspin = target: T6, Haspin (Homo sapiens, UniProt Q8TF76); experiment: Kinase panel, CaNDY 1 µM; design: purchased Carna Biosciences
# T6 sequence (Q8TF76 1-798): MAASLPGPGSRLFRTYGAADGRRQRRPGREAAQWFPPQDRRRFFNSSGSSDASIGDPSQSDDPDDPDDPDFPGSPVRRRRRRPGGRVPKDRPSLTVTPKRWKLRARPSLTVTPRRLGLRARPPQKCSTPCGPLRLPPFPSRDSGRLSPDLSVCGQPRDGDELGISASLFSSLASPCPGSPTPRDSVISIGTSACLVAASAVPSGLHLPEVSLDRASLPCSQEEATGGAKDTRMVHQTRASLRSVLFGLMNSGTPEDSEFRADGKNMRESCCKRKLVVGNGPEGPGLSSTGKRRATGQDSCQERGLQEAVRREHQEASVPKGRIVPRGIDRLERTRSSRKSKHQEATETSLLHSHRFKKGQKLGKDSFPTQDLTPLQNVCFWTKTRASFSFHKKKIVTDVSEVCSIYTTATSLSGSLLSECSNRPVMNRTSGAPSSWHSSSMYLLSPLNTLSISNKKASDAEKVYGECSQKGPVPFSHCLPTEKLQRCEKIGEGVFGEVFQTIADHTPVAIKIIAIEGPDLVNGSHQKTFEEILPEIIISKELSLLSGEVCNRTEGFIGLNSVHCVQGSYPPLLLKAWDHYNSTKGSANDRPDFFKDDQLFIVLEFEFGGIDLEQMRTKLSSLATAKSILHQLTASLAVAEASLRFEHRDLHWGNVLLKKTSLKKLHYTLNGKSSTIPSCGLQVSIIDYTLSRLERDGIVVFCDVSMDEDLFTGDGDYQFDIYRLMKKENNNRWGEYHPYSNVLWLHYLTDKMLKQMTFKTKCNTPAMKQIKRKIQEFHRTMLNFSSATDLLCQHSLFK
# From the text: as §1, §2
# DYRK1A = DYRK1A (Homo sapiens, UniProt Q13627); experiment: Kinase panel, CaNDY 1 µM; design: purchased Carna Biosciences
# From the text: as §1, §2
# TAOK2 = target: T7, TAOK2 (Homo sapiens, UniProt Q9UL54); experiment: Kinase panel, CaNDY 1 µM; conditions: CaNDY 1 µM relative to DMSO
# T7 construct: purchased Carna Biosciences
# T7 sequence (Q9UL54 whole entry): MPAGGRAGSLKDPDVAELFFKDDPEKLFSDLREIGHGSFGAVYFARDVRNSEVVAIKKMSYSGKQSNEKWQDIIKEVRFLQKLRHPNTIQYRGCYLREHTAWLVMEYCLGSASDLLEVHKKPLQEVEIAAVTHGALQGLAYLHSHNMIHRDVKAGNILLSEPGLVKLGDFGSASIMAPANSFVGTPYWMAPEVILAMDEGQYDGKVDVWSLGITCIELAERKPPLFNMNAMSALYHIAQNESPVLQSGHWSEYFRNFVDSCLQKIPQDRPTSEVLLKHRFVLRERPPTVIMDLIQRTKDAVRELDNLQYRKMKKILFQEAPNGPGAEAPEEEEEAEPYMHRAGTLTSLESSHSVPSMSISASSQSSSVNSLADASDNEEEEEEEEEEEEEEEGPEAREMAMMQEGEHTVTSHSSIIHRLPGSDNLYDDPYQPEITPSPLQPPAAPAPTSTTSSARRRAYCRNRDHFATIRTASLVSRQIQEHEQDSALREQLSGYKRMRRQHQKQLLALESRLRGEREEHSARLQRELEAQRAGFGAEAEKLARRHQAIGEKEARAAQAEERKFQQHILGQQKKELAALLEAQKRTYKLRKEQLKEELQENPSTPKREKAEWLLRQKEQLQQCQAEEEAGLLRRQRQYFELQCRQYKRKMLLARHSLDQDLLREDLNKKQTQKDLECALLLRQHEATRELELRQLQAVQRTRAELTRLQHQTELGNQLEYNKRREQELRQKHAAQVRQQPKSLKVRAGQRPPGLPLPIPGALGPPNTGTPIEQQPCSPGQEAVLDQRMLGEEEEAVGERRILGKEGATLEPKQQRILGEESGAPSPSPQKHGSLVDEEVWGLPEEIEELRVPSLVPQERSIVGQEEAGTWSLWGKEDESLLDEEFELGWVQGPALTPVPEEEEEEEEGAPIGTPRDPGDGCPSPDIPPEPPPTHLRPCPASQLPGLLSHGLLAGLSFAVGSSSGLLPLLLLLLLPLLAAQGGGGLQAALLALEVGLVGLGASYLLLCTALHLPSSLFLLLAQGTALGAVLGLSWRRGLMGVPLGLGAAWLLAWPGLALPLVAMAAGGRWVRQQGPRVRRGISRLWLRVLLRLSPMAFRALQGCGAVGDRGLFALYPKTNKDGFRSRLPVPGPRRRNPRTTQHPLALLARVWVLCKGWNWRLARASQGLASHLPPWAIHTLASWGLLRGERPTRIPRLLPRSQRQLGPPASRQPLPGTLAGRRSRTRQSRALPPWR
# GST-tagged human DYRK1A = target: T8, GST-tagged human DYRK1A (Homo sapiens, UniProt Q13627); experiment: ATP kinetics assay
# T8 construct: purchased Life Technologies PV3785
# Experimental: The kinase reaction for ATP kinetics was performed in a reaction mixture containing serially diluted inhibitors, 10 mM MOPS-KOH (pH 7.0), 10 mM magnesium acetate, 200 μM EDTA, 2.5–40 μM ATP, 0.125–0.4 μCi [γ-^32P]ATP, 5 μM DYRKtide (Anaspec, CA, USA), and 1 nM of GST-tagged human DYRK1A (Cat# PV3785, Life Technologies), for a final volume of 25 μl. The final concentration of DMSO was adjusted to 0.1%, regardless of the inhibitor concentration. The reaction mixture was incubated at 30 °C for 15 min, and phosphoric acid (final 5%) was then added to stop the reaction. 25 μL of the reaction mixture was dispensed onto P81, a phosphocellulose membrane (Whatman, GE Healthcare), and washed four times in 5% phosphoric acid. Cherenkov light from the incorporated ^32P was measured using a liquid scintillation counter. The kinase assay conditions, including the incubation period and the concentration of the kinases and substrates, were optimized to maintain linearity during the incubation. The net radioactivity was determined by subtracting the background count from the reaction mixture without kinase. The amount of incorporated ^32P was calculated from the standard line. The Km and Ki values were calculated with Prism6 software (GraphPad Software, San Diego, CA, USA) using the competitive inhibition model.
# RET = target: T9, RET (Homo sapiens, UniProt P07949); experiment: Kinase panel, CaNDY 1 µM; conditions: CaNDY 1 µM relative to DMSO
# T9 construct: purchased Carna Biosciences
# T9 sequence (P07949 29-1114): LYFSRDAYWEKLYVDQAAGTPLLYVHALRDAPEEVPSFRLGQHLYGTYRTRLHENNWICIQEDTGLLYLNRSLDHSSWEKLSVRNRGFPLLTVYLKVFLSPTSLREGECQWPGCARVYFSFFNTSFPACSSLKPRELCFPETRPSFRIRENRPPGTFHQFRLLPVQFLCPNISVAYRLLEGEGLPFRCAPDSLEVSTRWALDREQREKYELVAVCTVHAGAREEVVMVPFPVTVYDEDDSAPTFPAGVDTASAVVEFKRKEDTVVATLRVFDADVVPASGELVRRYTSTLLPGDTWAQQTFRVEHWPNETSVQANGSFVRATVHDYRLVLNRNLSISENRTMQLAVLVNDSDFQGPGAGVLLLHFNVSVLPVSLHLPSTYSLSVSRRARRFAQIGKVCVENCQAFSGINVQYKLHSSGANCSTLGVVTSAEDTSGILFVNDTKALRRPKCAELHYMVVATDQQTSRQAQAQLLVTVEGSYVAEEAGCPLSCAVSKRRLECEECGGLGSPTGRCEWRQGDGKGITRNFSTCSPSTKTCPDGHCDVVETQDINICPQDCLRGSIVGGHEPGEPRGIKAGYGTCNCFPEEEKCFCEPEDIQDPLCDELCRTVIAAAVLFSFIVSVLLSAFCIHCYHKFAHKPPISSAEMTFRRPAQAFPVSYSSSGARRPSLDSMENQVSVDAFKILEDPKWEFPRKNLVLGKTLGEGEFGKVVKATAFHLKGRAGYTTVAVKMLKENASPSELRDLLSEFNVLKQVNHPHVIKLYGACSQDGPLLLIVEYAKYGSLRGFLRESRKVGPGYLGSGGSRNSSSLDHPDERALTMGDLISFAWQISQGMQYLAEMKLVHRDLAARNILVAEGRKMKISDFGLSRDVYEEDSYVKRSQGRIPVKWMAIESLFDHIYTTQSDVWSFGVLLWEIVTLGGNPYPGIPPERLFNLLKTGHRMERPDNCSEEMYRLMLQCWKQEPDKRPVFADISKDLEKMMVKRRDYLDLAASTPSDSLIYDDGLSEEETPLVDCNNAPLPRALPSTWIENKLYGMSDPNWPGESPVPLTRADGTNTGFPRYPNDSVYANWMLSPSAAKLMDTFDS
# PDHK2 = target: T10, PDHK2 (Homo sapiens, UniProt Q15119); experiment: Kinase panel, CaNDY 1 µM; conditions: CaNDY 1 µM relative to DMSO
# T10 construct: purchased Carna Biosciences
# RSK1 = target: T11, RSK1 (Homo sapiens, UniProt Q15418); experiment: Kinase panel, CaNDY 1 µM; conditions: CaNDY 1 µM relative to DMSO
# T11 construct: purchased Carna Biosciences
# CK2α1/β = target: T12, CK2α1/β (Homo sapiens, UniProt P68400); experiment: Kinase panel, CaNDY 1 µM
# T12 construct: purchased Carna Biosciences
# T12 sequence (P68400 whole entry): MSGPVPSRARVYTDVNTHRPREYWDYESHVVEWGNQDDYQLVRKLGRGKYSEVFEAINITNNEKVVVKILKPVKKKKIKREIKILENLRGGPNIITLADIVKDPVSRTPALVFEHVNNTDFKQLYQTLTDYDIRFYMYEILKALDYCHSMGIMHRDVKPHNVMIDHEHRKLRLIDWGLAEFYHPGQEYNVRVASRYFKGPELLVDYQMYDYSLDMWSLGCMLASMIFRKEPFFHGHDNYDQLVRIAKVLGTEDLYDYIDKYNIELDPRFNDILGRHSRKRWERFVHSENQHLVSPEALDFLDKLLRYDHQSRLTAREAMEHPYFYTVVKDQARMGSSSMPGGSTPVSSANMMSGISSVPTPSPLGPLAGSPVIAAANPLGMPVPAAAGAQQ
# T12 sequence (P67870 whole entry partner): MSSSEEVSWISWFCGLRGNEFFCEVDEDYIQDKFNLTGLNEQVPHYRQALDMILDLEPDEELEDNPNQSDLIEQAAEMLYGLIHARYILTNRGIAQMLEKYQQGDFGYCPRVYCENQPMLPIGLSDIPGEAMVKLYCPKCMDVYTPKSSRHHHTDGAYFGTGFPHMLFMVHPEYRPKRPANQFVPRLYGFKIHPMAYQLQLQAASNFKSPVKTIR
# [1] = 1 μM CaNDY, read-out: percentage inhibition
structure (smiles),measurement,setting,value
"[H]/N=C1/NC(=O)C(=Cc2ccc3c(c2)CCO3)S1 [CaNDY, (Z)-5-[(2,3-dihydrobenzofuran-5-yl)methylene]-2-iminothiazolidin-4-one]",remaining activity at 1 µM,NDR2,91.9%
same,remaining activity at 1 µM,PAK6,101%
same,remaining activity at 1 µM,PYK2,98.7%
same,remaining activity at 1 µM,FLT1,102%
same,remaining activity at 1 µM,TNK1,99.7%
same,inhibition at 1 µM,DYRK1B; [1],> 90%
same,remaining activity at 1 µM,DYRK1B; CaNDY 1 µM relative to DMSO,3.7%
same,inhibition at 1 µM,Haspin; [1],> 90%
same,remaining activity at 1 µM,Haspin; CaNDY 1 µM relative to DMSO,3.8%
same,inhibition at 1 µM,DYRK1A; [1],> 90%
same,remaining activity at 1 µM,DYRK1A; CaNDY 1 µM relative to DMSO,0.9%
same,remaining activity at 1 µM,TAOK2,95.7%
same,Ki,"GST-tagged human DYRK1A; competitive inhibition model, 2.5–40 μM ATP",1.92 nM
same,mode of inhibition,GST-tagged human DYRK1A; double-reciprocal plots,competed with ATP on a single site of DYRK1A
same,remaining activity at 1 µM,RET,102%
same,remaining activity at 1 µM,PDHK2,91.6%
same,remaining activity at 1 µM,RSK1,91.2%
same,remaining activity at 1 µM,"CK2α1/β; CK2α1/β, CaNDY 1 µM relative to DMSO",34.7%
same,inhibition at 1 µM,"CK2α1/β; CK2α, 1 μM CaNDY, read-out: percentage inhibition",65%
